This is an account of results in patent publication US20110152094A1, “Herbicidal compositions comprising flufenacet” (Bayer CropScience AG, priority 2009, published 2011).

Assay type in all cases: in vivo
Data set [1] deals with MATCH = Matricaria chamomilla. Nature of the data set: Greenhouse trial, pre-sowing application 7 days prior to sowing (test method 5). As to conditions: g of AS/ha: (A) 90, (B) 1200, (A)+(B) 90 + 1200. As for the experimental part: (§1) In the standard design of the test, seeds of various broad-leaved weed and weed grass biotypes (origins) were sown in a 8-13 cm diameter pot filled with natural soil of a standard field soil (loamy silt; non-sterile) and covered with a covering soil layer of about 1 cm. The pots were then cultivated in a greenhouse (12-16 h of light, temperature day 20-22° C., night 15-18° C.) until the time of application. The pots were treated on a laboratory track sprayer with spray liquors comprising the compositions according to the invention, mixtures of the prior art or components used individually. Application of the active compounds or active compound combinations formulated as WG, WP, EC or otherwise was carried out at the appropriate growth stages of the plants. The application rate for the spray application was 100-600 l of water/ha. After the treatment, the plants were returned to the greenhouses.
(§2) About 3 weeks after the application, the soil action or/and foliar action was assessed visually according to a scale of 0-100% in comparison to an untreated comparative group: 0%=no noticeable effect compared to the untreated comparative group; 100%=full effect compared to the untreated comparative group.
(§3) (notes: the term “seeds” also includes vegetative propagation forms such as, for example, rhizome pieces; abbreviations used: h light=hours of illumination, g of AS/ha=gram of active substance per hectare, l/ha=liter per hectare, S=sensitive, R=resistant) • 1. Pre-emergence action against weeds: seeds of various broad-leaved weed and weed grass biotypes (origins) were sown in a 8-13 cm diameter pot filled with natural soil of a standard field soil (loamy silt; non-sterile) and covered with a covering soil layer of about 1 cm. The pots were then cultivated in a greenhouse (12-16 h of light, temperature day 20-22° C., night 15-18° C.) until the time of application. The pots were treated at the BBCH stage 00-10 of the seeds/plants on a laboratory track sprayer with spray liquors comprising the compositions according to the invention, mixtures or components used individually, as WG, WP, EC or other formulations. The application rate for the spray application was 100-600 l of water/ha. After the treatment, the plants were returned to the greenhouses and, when required, treated with fertilizer and watered. • 2. Post-emergence action against weeds: seeds of various broad-leaved weed and weed grass biotypes (origins) were sown in a 8-13 cm diameter pot filled with natural soil of a standard field soil (loamy silt; non-sterile) and covered with a covering soil layer of about 1 cm. The pots were then cultivated in a greenhouse (12-16 h of light, temperature day 20-22° C., night 15-18° C.) until the time of application. The pots were treated at various BBCH stages between 11-25 of the seeds/plants, i.e. generally between two to three weeks after the start of the cultivation, on a laboratory track sprayer with spray liquors comprising the compositions according to the invention, mixtures or components used individually, as WG, WP, EC or other formulations. The application rate for the spray application was 100-600 l of water/ha. After the treatment, the plants were returned to the greenhouses and, when required, treated with fertilizer and watered. • 3. […]

For data set [2], the system named is HORVW = Hordeum vulgare, winter barley. The data set is described as above. As to conditions: g of AS/ha: (A) 90, (B) 1200, (A)+(B) 90 + 1200. As for the experimental part: as §1, §2, §3
Data set [3] has as its system AVEFA = Avena fatua. The data set is described as above. As to conditions: g of AS/ha: (A) 90, (B) 1200, (A)+(B) 90 + 1200. As for the experimental part: as §1, §2, §3
The subject of data set [4] is MATCH = Matricaria chamomilla. The experiment in a line: Greenhouse trial, pre-emergence (PE) action against weeds (test method 1). As to conditions: PE application; g of AS/ha: (A) 90, (B) 1200, (A)+(B) 90 + 1200. As for the experimental part:
as §1, §2
(§4) (notes: the term “seeds” also includes vegetative propagation forms such as, for example, rhizome pieces; abbreviations used: h light=hours of illumination, g of AS/ha=gram of active substance per hectare, l/ha=liter per hectare, S=sensitive, R=resistant) • 1. Pre-emergence action against weeds: seeds of various broad-leaved weed and weed grass biotypes (origins) were sown in a 8-13 cm diameter pot filled with natural soil of a standard field soil (loamy silt; non-sterile) and covered with a covering soil layer of about 1 cm. The pots were then cultivated in a greenhouse (12-16 h of light, temperature day 20-22° C., night 15-18° C.) until the time of application. The pots were treated at the BBCH stage 00-10 of the seeds/plants on a laboratory track sprayer with spray liquors comprising the compositions according to the invention, mixtures or components used individually, as WG, WP, EC or other formulations. The application rate for the spray application was 100-600 l of water/ha. After the treatment, the plants were returned to the greenhouses and, when required, treated with fertilizer and watered. • 2. Post-emergence action against weeds: seeds of various broad-leaved weed and weed grass biotypes (origins) were sown in a 8-13 cm diameter pot filled with natural soil of a standard field soil (loamy silt; non-sterile) and covered with a covering soil layer of about 1 cm. The pots were then cultivated in a greenhouse (12-16 h of light, temperature day 20-22° C., night 15-18° C.) until the time of application. […]

The subject of data set [5] is AVEFA = Avena fatua. The data set is described as above. As to conditions: PE application; g of AS/ha: (A) 90, (B) 1200, (A)+(B) 90 + 1200. As for the experimental part: as §1, §2, §4
The test system of data set [6] is TRZAW = Triticum aestivum, winter wheat. Nature of the data set: Greenhouse trial, PE application at different sowing depths (test method 9). As to conditions: g of AS/ha: (A) 120, (B) 1200, (A)+(B) 120 + 1200. As for the experimental part:
as §1, §2
(§5) (notes: the term “seeds” also includes vegetative propagation forms such as, for example, rhizome pieces; abbreviations used: h light=hours of illumination, g of AS/ha=gram of active substance per hectare, l/ha=liter per hectare, S=sensitive, R=resistant) • 1. Pre-emergence action against weeds: seeds of various broad-leaved weed and weed grass biotypes (origins) were sown in a 8-13 cm diameter pot filled with natural soil of a standard field soil (loamy silt; non-sterile) and covered with a covering soil layer of about 1 cm. The pots were then cultivated in a greenhouse (12-16 h of light, temperature day 20-22° C., night 15-18° C.) until the time of application. The pots were treated at the BBCH stage 00-10 of the seeds/plants on a laboratory track sprayer with spray liquors comprising the compositions according to the invention, mixtures or components used individually, as WG, WP, EC or other formulations. The application rate for the spray application was 100-600 l of water/ha. After the treatment, the plants were returned to the greenhouses and, when required, treated with fertilizer and watered. • 2. Post-emergence action against weeds: seeds of various broad-leaved weed and weed grass biotypes (origins) were sown in a 8-13 cm diameter pot filled with natural soil of a standard field soil (loamy silt; non-sterile) and covered with a covering soil layer of about 1 cm. The pots were then cultivated in a greenhouse (12-16 h of light, temperature day 20-22° C., night 15-18° C.) until the time of application. The pots were treated at various BBCH stages between 11-25 of the seeds/plants, i.e. generally between two to three weeks after the start of the cultivation, on a laboratory track sprayer with spray liquors comprising the compositions according to the invention, mixtures or components used individually, as WG, WP, EC or other formulations. The application rate for the spray application was 100-600 l of water/ha. After the treatment, the plants were returned to the greenhouses and, when required, treated with fertilizer and watered. • 3. Selective pre-emergence action: seeds of various crop species (origins) were sown in a 8-13 cm diameter pot filled with natural soil of a standard field soil (loamy silt; non-sterile) and covered with a covering soil layer of about 1 cm. The pots were then cultivated in a greenhouse (12-16 h of light, temperature day 20-22° C., night 15-18° C.) until the time of application. The pots were treated at the BBCH stage 00-10 of the seeds/plants on a laboratory track sprayer with spray liquors comprising the compositions according to the invention, mixtures or components used individually, as WG, WP, EC or other formulations. The application rate for the spray application was 100-600 l of water/ha. […]

The test system of data set [7] is HORVW = Hordeum vulgare, winter barley. The description is as above. As to conditions: g of AS/ha: (A) 120, (B) 1200, (A)+(B) 120 + 1200. As for the experimental part: as §1, §2, §5
Another data set has as its system LOLPE = Lolium perenne. Described as above. As to conditions: g of AS/ha: (A) 120, (B) 1200, (A)+(B) 120 + 1200. As for the experimental part:
as §1, §2, §5

The test system of data set [8] is STEME = Stellaria media. Described as above. As to conditions: g of AS/ha: (A) 120, (B) 1200, (A)+(B) 120 + 1200. As for the experimental part: as §1, §2, §5
For data set [9], the system named is STEME = Stellaria media. Nature of the data set: Greenhouse trial, activity with different soil types (test method 7). As to conditions: g of AS/ha: (A) 120, (B) 1200, (A)+(B) 120 + 1200. As for the experimental part: as §1, §2, §5
The test system of data set [10] is TRZAS = Triticum aestivum, summer wheat. Described as above. As to conditions: g of AS/ha: (A) 120, (B) 1200, (A)+(B) 120 + 1200. As for the experimental part: as §1, §2, §5
Data set [11] relates to MATCH sensitive (Matricaria chamomilla). The experiment in a line: Greenhouse trial, PE application on resistant biotypes (test method 8). As to conditions: sensitive biotype, g of AS/ha: (A) 90, (B) 1200, (A)+(B) 90 + 1200, (C) 10. As for the experimental part:
as §1, §2, §5

For data set [12], the system named is MATCH resistant (Matricaria chamomilla). The description is as above. As to conditions: resistant biotype, g of AS/ha: (A) 90, (B) 1200, (A)+(B) 90 + 1200, (C) 10. As for the experimental part:
as §1, §2, §5

Data set [13] relates to ALOMY sensitive (Alopecurus myosuroides). Described as above. As to conditions: sensitive biotype, g of AS/ha: (A) 90, (B) 1200, (A)+(B) 90 + 1200. As for the experimental part: as §1, §2, §5
Data set [14] relates to ALOMY resistant (Alopecurus myosuroides). Described as above. As to conditions: resistant biotype, g of AS/ha: (A) 90, (B) 1200, (A)+(B) 90 + 1200. As for the experimental part:
as §1, §2, §5

SMILES strings stand for the structures.

Take `CCC(CC)Nc1c([N+](=O)[O-])cc(C)c(C)c1[N+](=O)[O-]` [(B) pendimethalin, N-(1-ethylpropyl)-3,4-dimethyl-2,6-dinitrobenzenamine]: the “activity MATCH (visual assessment, scale 0-100% vs untreated)” value is 0% in data set [1] and 18% in data set [4]. Besides, in data set [2], the “activity on crop plant HORVW (visual assessment, scale 0-100% vs untreated)” value was found to be 40%. Moreover, the “activity AVEFA (visual assessment, scale 0-100% vs untreated)” value in the data set with AVEFA = Avena fatua [3] turned out to be 70%; in the data set with AVEFA = Avena fatua [5], 88%. Further, the “activity on crop plant TRZAW, sowing depth 5 mm (visual assessment, scale 0-100% vs untreated)” value in data set [6] (sowing depth 5 mm) worked out at 45%. In addition, the “activity on crop plant TRZAW, sowing depth 20 mm (visual assessment, scale 0-100% vs untreated)” value in [6] (sowing depth 20 mm) is 10%. The “activity on crop plant HORVW, sowing depth 5 mm (visual assessment, scale 0-100% vs untreated)” value in data set [7] (sowing depth 5 mm) came to 25%. For the same molecule, in data set [7] (sowing depth 20 mm), the “activity on crop plant HORVW, sowing depth 20 mm (visual assessment, scale 0-100% vs untreated)” value amounted to 0%. The “activity LOLPE, sowing depth 5 mm (visual assessment, scale 0-100% vs untreated)” value in the data set on LOLPE = Lolium perenne (sowing depth 5 mm) is on record as 30%. Further, in the data set on LOLPE = Lolium perenne (sowing depth 20 mm), the “activity LOLPE, sowing depth 20 mm (visual assessment, scale 0-100% vs untreated)” value is 10%. In addition, the “activity STEME, sowing depth 5 mm (visual assessment, scale 0-100% vs untreated)” value with STEME = Stellaria media [8] (sowing depth 5 mm) worked out at 50%. Moreover, the “activity STEME, sowing depth 20 mm (visual assessment, scale 0-100% vs untreated)” value in the data set with STEME = Stellaria media [8] (sowing depth 20 mm) is 70%. For the same molecule, the “activity STEME IU soil (visual assessment, scale 0-100% vs untreated)” value in the data set on STEME = Stellaria media [9] (IU soil (loamy silt, standard field soil)) is given as 85%. Also, the “activity STEME IU/EC73 soil (visual assessment, scale 0-100% vs untreated)” value in the data set with STEME = Stellaria media [9] (IU/EC73 soil (heavier soil, higher organic substance)) was determined as 55%. Also, in the data set on STEME = Stellaria media [9] (IU/EC73 soil versus IU soil), the “Difference of the soil types Δ^D, STEME” value is “Δ^D −30%”. Further, in [10] (IU soil), the “activity on crop plant TRZAS IU soil (visual assessment, scale 0-100% vs untreated)” value was determined as 5%. In addition, the “Difference of the soil types Δ^D, TRZAS” value in data set [10] (IU/EC73 soil versus IU soil, crop plant) was “Δ^D −5%”. In addition, the “activity on crop plant TRZAS IU/EC73 soil (visual assessment, scale 0-100% vs untreated)” value in [10] (IU/EC73 soil) turned out to be 0%. The “activity MATCH sensitive (visual assessment, scale 0-100% vs untreated)” value in [11] was determined as 10%. Besides, the “activity MATCH resistant (visual assessment, scale 0-100% vs untreated)” value in data set [12] turned out to be 10%. Further, the “activity ALOMY sensitive (visual assessment, scale 0-100% vs untreated)” value in data set [13] is given as 30%. Further, the “activity ALOMY resistant (visual assessment, scale 0-100% vs untreated)” value in data set [14] worked out at 40%.
